According to PubChem BioAssay AID1963977 (Molecular Pharmacology Branch, DTP, NCI, 2024):

System: 624824-186-R-J3-PDC multicell spheroids, viability
Assay: Anticancer human tumor 624824-186-R-J3-PDC patient-derived colon adenocarcinoma cell line growth inhibition [PI3K]
Settings: for IC50: curve of first compound; for viability, T/C: stronger effect = lower value; active = viability on the fitted dose curve at most 10% of control; inactive = the rest
Procedure, shortened: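 Combination activity was assessed by viability in multicellular tumor spheroids carrying HUVEC and MSC components. Agents were tested with PI3K inhibitors from a Cmax-based top dose (or 10 microM) downward in half-log increments.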

[1] = second compound 0.00316 µM, first compound 0.000316 µM
[2] = second compound 0.00316 µM, first compound 0.001 µM
[3] = second compound 0.00316 µM, first compound 0.00316 µM
[4] = second compound 0.00316 µM, first compound 0.01 µM
[5] = second compound 0.00316 µM, first compound 0.0316 µM
[6] = second compound 0.00316 µM, first compound 0.1 µM
[7] = second compound 0.01 µM, first compound 0.000316 µM
[8] = second compound 0.01 µM, first compound 0.001 µM
[9] = second compound 0.01 µM, first compound 0.00316 µM
[10] = second compound 0.01 µM, first compound 0.01 µM
[11] = second compound 0.01 µM, first compound 0.0316 µM
[12] = second compound 0.01 µM, first compound 0.1 µM
[13] = second compound 0.0316 µM, first compound 0.000316 µM
[14] = second compound 0.0316 µM, first compound 0.001 µM
[15] = second compound 0.0316 µM, first compound 0.00316 µM
[16] = second compound 0.0316 µM, first compound 0.01 µM
[17] = second compound 0.0316 µM, first compound 0.0316 µM
[18] = second compound 0.0316 µM, first compound 0.1 µM
[19] = second compound 0.1 µM, first compound 0.000316 µM
[20] = second compound 0.1 µM, first compound 0.001 µM
[21] = second compound 0.1 µM, first compound 0.00316 µM
[22] = second compound 0.1 µM, first compound 0.01 µM
[23] = second compound 0.1 µM, first compound 0.0316 µM
[24] = second compound 0.1 µM, first compound 0.1 µM
[25] = second compound 0.316 µM, first compound 0.000316 µM
[26] = second compound 0.316 µM, first compound 0.001 µM
[27] = second compound 0.316 µM, first compound 0.00316 µM
[28] = second compound 0.316 µM, first compound 0.01 µM
[29] = second compound 0.316 µM, first compound 0.0316 µM
[30] = second compound 0.316 µM, first compound 0.1 µM
[31] = second compound 1 µM, first compound 0.000316 µM
[32] = second compound 1 µM, first compound 0.001 µM
[33] = second compound 1 µM, first compound 0.00316 µM
[34] = second compound 1 µM, first compound 0.01 µM
[35] = second compound 1 µM, first compound 0.0316 µM
[36] = second compound 1 µM, first compound 0.1 µM
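Note: spheroids exposed to agents for seven days before luminescence read.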
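Throughout, for viability, T/C: luminescent signal used as a stand-in for spheroid viability; percent viability relative to DMSO vehicle control wells taken as 100%.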

CC(=O)c1c(C)c2cnc(Nc3ccc(N4CCNCC4)cn3)nc2n(C2CCCC2)c1=O + COc1c(OCCCN2CCOCC2)ccc2c3n(c(=NC(=O)c4cnc(N)nc4)nc12)CCN3
0.852 nM: IC50 (second compound 0.316 µM)
< 0.316 nM: IC50 (second compound 1 µM)
inactive: viability, T/C [1] 99.3% | viability, T/C [2] 97.3% | viability, T/C [3] 107% | viability, T/C [4] 96.7% | viability, T/C [5] 93% | viability, T/C [6] 108% | viability, T/C [7] 104% | viability, T/C [8] 103% | viability, T/C [9] 104% | viability, T/C [10] 105% | viability, T/C [11] 98.8% | viability, T/C [12] 116% | viability, T/C [13] 90.9% | viability, T/C [14] 106% | viability, T/C [15] 86.6% | viability, T/C [16] 87.3% | viability, T/C [17] 93.7% | viability, T/C [18] 80.4% | viability, T/C [19] 75.1% | viability, T/C [20] 75.8% | viability, T/C [21] 74.4% | viability, T/C [22] 74% | viability, T/C [23] 70.5% | viability, T/C [24] 48.6% | viability, T/C [25] 52.9% | viability, T/C [26] 46.5% | viability, T/C [27] 49.9% | viability, T/C [28] 40.2% | viability, T/C [29] 35.6% | viability, T/C [30] 26.4% | viability, T/C [31] 27.6% | viability, T/C [32] 32% | viability, T/C [33] 28.3% | viability, T/C [34] 26.7% | viability, T/C [35] 21.5% | viability, T/C [36] 19.7%
> 100 nM: IC50 (second compound 0.00316 µM) | IC50 (second compound 0.01 µM) | IC50 (second compound 0.0316 µM)
93 nM: IC50 (second compound 0.1 µM)

CC(C)n1nc(-c2ccc3oc(N)nc3c2)c2c(N)ncnc21 + COc1c(OCCCN2CCOCC2)ccc2c3n(c(=NC(=O)c4cnc(N)nc4)nc12)CCN3
inactive: viability, T/C [1] 108% | viability, T/C [2] 106% | viability, T/C [3] 106% | viability, T/C [4] 99.2% | viability, T/C [5] 89.1% | viability, T/C [6] 52.6% | viability, T/C [7] 101% | viability, T/C [8] 102% | viability, T/C [9] 109% | viability, T/C [10] 95.9% | viability, T/C [11] 82.2% | viability, T/C [12] 52.2% | viability, T/C [13] 97.8% | viability, T/C [14] 96.7% | viability, T/C [15] 91.9% | viability, T/C [16] 92.3% | viability, T/C [17] 63.6% | viability, T/C [18] 39.2% | viability, T/C [19] 83.2% | viability, T/C [20] 80.2% | viability, T/C [21] 80.2% | viability, T/C [22] 72.1% | viability, T/C [23] 48.3% | viability, T/C [24] 27.5% | viability, T/C [25] 53.5% | viability, T/C [26] 48.6% | viability, T/C [27] 51.1% | viability, T/C [28] 39.2% | viability, T/C [29] 31.5% | viability, T/C [30] 22.2% | viability, T/C [31] 28.5% | viability, T/C [32] 28.8% | viability, T/C [33] 31.4% | viability, T/C [34] 23.9% | viability, T/C [35] 24.9% | viability, T/C [36] 18.6%
> 100 nM: IC50 (second compound 0.00316 µM) | IC50 (second compound 0.01 µM)
29.2 nM: IC50 (second compound 0.1 µM)
1.66 nM: IC50 (second compound 0.316 µM)
< 0.316 nM: IC50 (second compound 1 µM)
60.2 nM: IC50 (second compound 0.0316 µM)
